The record followed here is US8212024B2, “Crystalline sodium salt of cephalosporin antibiotic” (Orchid Chemicals & Pharmaceuticals Ltd., priority 2005, dated 2012).

Type in all cases: physicochemical
A short description of data set [1]: Comparison of physical characteristics: tapped bulk density. The text has this: The following Table provides a comparison of physical characteristics of amorphous and crystalline Ceftiofur Sodium. From this table it is evident that the crystalline Ceftiofur Sodium has better physical characteristics than amorphous material. [table]
Data set [2] can be described thus: Hygroscopicity observation. From the text: Apart from the conventional formulation that are described the Ceftiofur sodium formulation may also contain chelating agent like ethylene diamine tetraacetic acid (EDTA) or a buffer like sodium citrate along with or with out conventional excipient. The pharmaceutical composition may also contain amorphous Ceftiofur sodium along with crystalline Ceftiofur sodium.

Data set [3] can be described thus: Stability at 40 ± 2° C. & 75 ± 5% RH. To be noted: for Assay: in % (unit assumed). From the text: (§1) The following Tables (Table 2 & 3) provide stability data of crystalline Ceftiofur Sodium prepared according to this invention. From this it table it is evident that the crystalline Ceftiofur Sodium prepared according this invention is a very stable and a highly pure material, which is clearly indicated by total RS (Related substances) analysis & the stability data. [table]

The nature of data set [4]: Stability at 25 ± 2° C. & 60 ± 5% RH. To be noted: for Assay: in % (unit assumed).
Text: as §1

Regarding `CO/N=C(\C(=O)NC1C(=O)N2C(C(=O)[O-])=C(CSC(=O)c3ccco3)CSC12)c1csc(N)n1.[Na+]` (centres unmarked) [Amorphous Ceftiofur sodium, Ceftiofur sodium, reference compound], the “Tapped Bulk density” value in data set [1] was 0.5 g/mL. The Hygroscopic nature result in data set [2] is listed as “highly hygroscopic”.
Turning to `CO/N=C(\C(=O)N[C@@H]1C(=O)N2C(C(=O)[O-])=C(CSC(=O)c3ccco3)CS[C@H]12)c1csc(N)n1.[Na+]` [Ceftiofur sodium], the Hygroscopic nature result in data set [2] is reported as “non-hygroscopic”.
Consider `CO/N=C(\C(=O)NC1C(=O)N2C(C(=O)[O-])=C(CSC(=O)c3ccco3)CSC12)c1csc(N)n1.[Na+]` (centres unmarked) [Crystalline Ceftiofur sodium, Ceftiofur sodium], for which the Total RS (Related substances) worked out at 0.93% in data set [3] (2 month); 0.78% in data set [3] (15 days); 0.61% in data set [3] (Initial); 0.75% in data set [4] (1 month); 0.78% in data set [4] (2 month); 0.61% in data set [4] (Initial). The Assay in data set [3] (2 month) is on record as 100.61; in data set [3] (15 days), 100.64; in data set [3] (Initial), 101.25; in data set [4] (1 month) it was 101.18; in data set [4] (2 month), 100.31; in data set [4] (Initial) it was 101.25. Also, in data set [1], the “Tapped Bulk density” value is 0.8 g/mL. For the same compound, the Hygroscopic nature result in data set [2] is “non-hygroscopic”.
